Experimental data published in patent US11426347B2, “Food for improving intraintestinal environment” (AJINOMOTO CO., INC., priority 2017, dated 2022).

Test system: bifidobacteria
Assay: Experimental Example 1-2: addition test of amino acid and fructo-oligosaccharide to human feces suspension
Format: cell-based
Details: amino acid added together with 0.5% FOS, compared with FOS alone; human feces suspension in PBS, 4 days; quantitative PCR
Experimental: (§1) Thereafter, 10 ml of each solution was dispensed into glass vials and the glass vials were sterilized by autoclave, made anaerobic, and sealed with a butyl rubber stopper. The feces suspension was prepared by collecting about 10 g of feces from 3 healthy individuals (one man and two women) in their 20 s to 40 s and suspending same in 80 ml of anaerobic PBS. The feces suspension was added to each vial by 0.5 ml, placed in an incubator at 37° C., and anaerobically cultured for 4 days with tumble blending once per day. After completion of the culture, an intestinal bacterial pellet was obtained from the entire amount of the culture medium by centrifugation (8,000×g, 5 min). DNA was extracted from this pellet using ISOFECAL for BeadsBeat (manufactured by NIPPON GENE CO., LTD.), and quantitative PCR was performed using GeneAce SYBR qPCR Mix α (manufactured by NIPPON GENE CO., LTD.). Quantitative PCR was performed under the conditions of 45 cycles of 95° C. for 30 sec and 60° C. for 60 sec after 95° C. for 10 min. Primers for quantitative PCR used for detection bifidobacteria are as follows.
The PBS solutions for the Examples and Comparative Examples shown in Table 1-2 were prepared and used as media for a feces culture. […]
(§2) Using the results obtained by quantitative PCR, the relative amount when the control is 1 was calculated, and the results were normalized with z-score.

**Q.** `N[C@@H](Cc1c[nH]cn1)C(=O)O` [His, L-histidine] was tested. Which proliferation of bifidobacteria did it give?
**A.** Its proliferation of bifidobacteria is “greater proliferation of bifidobacteria than that with FOS alone”.

**Q.** For `O=C(O)[C@@H]1CCCN1` [Pro, L-proline], which proliferation of bifidobacteria is on record?
**A.** Its proliferation of bifidobacteria is “greater proliferation of bifidobacteria than that with FOS alone”.

Test system: bifidobacteria
Assay: Experimental Example 2: addition test of amino acid and galacto-oligosaccharide to human feces suspension
Format: cell-based
Details: amino acid added together with 0.5% GOS, compared with GOS alone; human feces suspension in PBS, 4 days; quantitative PCR
Experimental: as §1
The PBS solutions for the Examples and Comparative Examples shown in Table 2 were prepared and used as media for feces culture. […]
as §2

**Q.** For `N[C@@H](CCC(=O)O)C(=O)O` [Glu, L-glutamic acid], which proliferation of bifidobacteria is on record?
**A.** Its proliferation of bifidobacteria is “greater proliferation of bifidobacteria than that with GOS alone”.

**Q.** Which proliferation of bifidobacteria does the source give for `NCCCC[C@H](N)C(=O)O` [Lys, L-lysine] here?
**A.** Its proliferation of bifidobacteria is “greater proliferation of bifidobacteria than that with GOS alone”.

Test system: bifidobacteria
Assay: Experimental Example 1-1: addition of amino acid and fructo-oligosaccharide to human feces suspension, anaerobic culture, quantitative PCR of bifidobacteria
Format: cell-based
Details: amino acid added together with 0.5% FOS, compared with FOS alone, human feces suspension in PBS, 37° C., 4 days
Experimental: The PBS solutions for the Examples and Comparative Examples shown in Table 1-1 were prepared and used as media for a feces culture. PBS alone was used as a control. Fructo-oligosaccharide (FOS) manufactured by Wako Pure Chemical Industries, Ltd. (#064-02385) was used.
as §1, §2

**Q.** `C[C@H](N)C(=O)O` [Ala, L-alanine] was tested. Which proliferation of bifidobacteria did it give?
**A.** The proliferation of bifidobacteria was “greater proliferation of bifidobacteria than that with FOS alone”.

**Q.** How did the proliferation of bifidobacteria turn out when `NC(=O)CC[C@H](N)C(=O)O` [Gln, L-glutamine] was run?
**A.** Its proliferation of bifidobacteria is “greater proliferation of bifidobacteria than that with FOS alone”.

**Q.** `N[C@@H](CCC(=O)O)C(=O)O` [Glu, L-glutamic acid] was tested. Which proliferation of bifidobacteria did it give?
**A.** The proliferation of bifidobacteria was “greater proliferation of bifidobacteria than that with FOS alone”.

**Q.** With `CC[C@H](C)[C@H](N)C(=O)O` [Ile, L-isoleucine] as the compound, how does the proliferation of bifidobacteria read?
**A.** The proliferation of bifidobacteria was “greater proliferation of bifidobacteria than that with FOS alone”.

**Q.** For `NCCCC[C@H](N)C(=O)O` [Lys, L-lysine], which proliferation of bifidobacteria is on record?
**A.** Its proliferation of bifidobacteria is “greater proliferation of bifidobacteria than that with FOS alone”.

**Q.** With `CC(C)[C@H](N)C(=O)O` [Val, L-valine] as the compound, how does the proliferation of bifidobacteria read?
**A.** Its proliferation of bifidobacteria is “greater proliferation of bifidobacteria than that with FOS alone”.
